This passage reports Count results from US20240207422A1, “NERVE TARGETING PEPTIDE CONJUGATES AND METHODS OF USE” (Alume Biosciences, Inc., priority 2022, published 2024).

The subject of one experiment is excised human nerve tissue. The experiment is described as follows: Phage display selection on excised human nerve tissue (Nerve2, Nerve3), NextGen sequence counts. The format is binding. As to conditions: unique sequence count (relative enrichment); Nerve2 only. Put shortly:
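Randomized parent-peptide m13 phage libraries (about 50% mutation per residue) selected on washed excised human nerve tissue over multiple rounds, washing nerve pellet with PBS. NextGen sequencing of pools after rounds 2, 3 and 4; translated peptides counted by frequency, with counts 6 or greater retained.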
On to 241 (HDASGVSYYDRRES) [compound 241], for which the Count is 21.
Regarding 242 (HVGLPEPHHVMIHS) [compound 242], the Count came to 20.
Same read-out and setting: with 243 (EVPSLQPYHGGKKS) [compound 243] the figure was 19.
Same read-out and setting: next, 244 (QIPSQEPYHRFKES) [compound 244]: 19; 245 (QIPGEAPYSFGKKY) [compound 245]: 18; 246 (QNPWHYPYSLVSTA) [compound 246]: 17.
247 (DVPFRLWNFAVVDS) [compound 247] displayed a Count of 15.
For 248 (HFAWVVPNDAVKAS) [compound 248], the Count came to 15.
Substance 249 (HFSWEERYRVVHKS) [compound 249] registered a Count of 15.
Same read-out and setting: next, 250 (RVPSDEPYSFLRQS) [compound 250]: 15; 251 (TQRWAEPYHVFHKS) [compound 251]: 15.
Same read-out and setting: next, 252 (HVLRHEPYYVVAQA) [compound 252]: 14; 253 (LLPSDEAHYIVKHS) [compound 253]: 14.
Substance 254 (NVLSEQPGYVMEYL) [compound 254] came in with a Count of 14.
255 (QLPWTNPFHVVNKY) [compound 255] registered a Count of 14.
Same read-out and setting: with 256 (QYSLDESPYGAKKS) [compound 256] the figure was 14; with 257 (YVPGAAPIGIVHKS) [compound 257], 14; with 258 (HFAWEEVFHVKKNF) [compound 258], 13.
With 259 (HSPSKESHYVLENM) [compound 259], the Count amounted to 13.
On the same count and under the same terms, with 260 (HVPFGGTYSVEGES) [compound 260] the figure was 13; with 261 (HYRCVGSCYVVAKS) [compound 261], 13; with 262 (LFRSQAQNVLVISH) [compound 262], 13.
263 (QFPGSELTVSVIQV) [compound 263]: the Count is reported as 13.
With 264 (QFSSQEAHYELNTP) [compound 264], the Count stood at 13.
Still for that read-out and setting: with 265 (QSPWDEPYYGVLMA) [compound 265] the figure was 13; with 266 (QSTPEERYHRVIQA) [compound 266], 13.
The same measure, in the same setting: with 267 (QVPLGAPFYAVRKS) [compound 267] the figure was 13; with 268 (YERWEAPFYDVQKS) [compound 268], 13; with 269 (HVAWNEPHHVLLQI) [compound 269], 12.
As to 270 (HVLWEDPYYVVRMP) [compound 270], the Count was found to be 12.
On the same count and under the same terms, next, 271 (HVQLREHYFVVYSS) [compound 271]: 12; 272 (HVSSEAPYYVLNKS) [compound 272]: 12.
Same read-out and setting: with 273 (LFPLDETYYVAKVS) [compound 273] the figure was 12; with 274 (QALLEEKYTALKKS) [compound 274], 12; with 275 (QFPWEQRNYDVKKY) [compound 275], 12.
As to 276 (QIPLDARSYLLKRP) [compound 276], the Count is listed as 12.
On the same count and under the same terms, next, 277 (QIQREEPFYVLKLY) [compound 277]: 12; 278 (QLPSKASNSVQQTF) [compound 278]: 12; 279 (QLPWEKPYYDVEVT) [compound 279]: 12.
On the same count and under the same terms, next, 280 (QNPGKSPYYVVHKS) [compound 280]: 12.
Turning to 281 (QVWGEVPLSGAKRF) [compound 281], the Count worked out at 12.
Substance 282 (RVPSAAAYYGAKIS) [compound 282] displayed a Count of 12.
Still for that read-out and setting: with 283 (VFSSDSQYLFVPNF) [compound 283] the figure was 12.
The same measure, in the same setting: next, 284 (DRPVEVPSDFVNNS) [compound 284]: 11; 285 (DVLGIERYYAVKDP) [compound 285]: 11.
On the same count and under the same terms, next, 286 (HHPGVGPFHVVKRS) [compound 286]: 11; 287 (HLSQYEPYDPVDKS) [compound 287]: 11.
Consider 288 (HVAWDGAYNLVQTT) [compound 288], for which the Count is reported as 11.
In the case of 289 (HVPGQDPYDVQATY) [compound 289], the Count came out at 11.
Still for that read-out and setting: with 290 (HVPLEGSYLDDINS) [compound 290] the figure was 11; with 291 (HVTLAEPHLLLGKS) [compound 291], 11.
Still for that read-out and setting: next, 292 (KFSLVHPEYYGKET) [compound 292]: 11; 293 (NLPGVEQYNLPNSS) [compound 293]: 11; 294 (NVPWQVPYSVLKMP) [compound 294]: 11.
295 (QFAGEVPYYFATDL) [compound 295] displayed a Count of 11.
The same measure, in the same setting: with 296 (QHPMDPTYHVVIKA) [compound 296] the figure was 11.
As to 297 (QILSEEPYYRVDMP) [compound 297], the Count is 11.
The same measure, in the same setting: with 298 (QIPLAYSNYVVNKY) [compound 298] the figure was 11; with 299 (QITFEVPCCLVRKG) [compound 299], 11.
As for 300 (QLGLDKLNHLVKKS) [compound 300], the Count came out at 11.
Substance 301 (QSSSVEPYYVLQNS) [compound 301] had a Count of 11.
As for 302 (QVACEQPYYNVNCS) [compound 302], the Count is 11.
Still for that read-out and setting: with 303 (RLPEAEPYYLMTQP) [compound 303] the figure was 11; with 304 (RVPGERQYDALNLS) [compound 304], 11; with 305 (YVPLQEPYYVVKQS) [compound 305], 11.
On the same count and under the same terms, next, 306 (ESALKEPHQVLKHS) [compound 306]: 10; 307 (HAPADQLYYPVWKP) [compound 307]: 10; 308 (HFPWEEPYHVAKRS) [compound 308]: 10.
Still for that read-out and setting: with 309 (HFQSEEPYHIPHKH) [compound 309] the figure was 10; with 310 (HHPLQEPYYVVEKS) [compound 310], 10.
On to 311 (HMPGREPYYVVTTS) [compound 311], for which the Count is reported as 10.
In turn, 312 (HVAWKGPYYVLETH) [compound 312] gave a Count of 10.
The substance 313 (HVHGAPSYSVLKHS) [compound 313] displayed a Count of 10.
Still for that read-out and setting: with 314 (HVLWVEPYYVINKY) [compound 314] the figure was 10.
315 (HVPRVDHLYVETKS) [compound 315] showed a Count of 10.
As for 316 (HVPSGERYYVVKTI) [compound 316], the Count was found to be 10.
The same measure, in the same setting: next, 317 (HVPYVGAYNGVKKS) [compound 317]: 10.
The same measure, in the same setting: with 318 (HVQWEGPYYDVKKS) [compound 318] the figure was 10; with 319 (HVRGAELSYVLTKS) [compound 319], 10.
Substance 320 (HVTWGEPYQVLNKS) [compound 320] displayed a Count of 10.
On to 321 (KLLTEAPYMFRTQA) [compound 321], for which the Count is 10.
With 322 (KLPWQESYDIVRKS) [compound 322], the Count is listed as 10.
323 (KLQWQDPDYVVKNS) [compound 323] returned a Count of 10.
On the same count and under the same terms, next, 324 (KQLGVLPDYVRKNT) [compound 324]: 10; 325 (LAPFEERSYALKSP) [compound 325]: 10; 326 (LASWDEPSSVLRES) [compound 326]: 10.
327 (LLPPDEPYYPMKKS) [compound 327]: the Count is given as 10.
Same read-out and setting: next, 328 (NLQWEQPSYVAKDY) [compound 328]: 10; 329 (NVPWSEQYNALKTS) [compound 329]: 10.
330 (QFASSHTDYVADKS) [compound 330] showed a Count of 10.
Still for that read-out and setting: with 331 (QIQWQGSYNDLNKS) [compound 331] the figure was 10; with 332 (QISSEEPTSLLDRP) [compound 332], 10.

The same experiment, now with this note: unique sequence count (relative enrichment); peptides overlapping between Nerve2 and Plated Nerve2.
As to 224 (HVPLQGPYYVKQKP) [compound 224], the Count amounted to 64.
225 (NVEWEIPYYFVKKF) [compound 225] gave a Count of 64.
Substance 226 (QFAWVQPYYFAKKS) [compound 226] yielded a Count of 64.
Same read-out and setting: next, 227 (QHPVKERDEFWKES) [compound 227]: 64; 228 (QIPWGETTAGIKKL) [compound 228]: 64; 229 (EFSREQPNDFLNKS) [compound 229]: 63.
Same read-out and setting: next, 230 (HIPFAEHDGVVPIS) [compound 230]: 63.
The substance 231 (HVTSHEARYLAQNS) [compound 231] displayed a Count of 63.
232 (EFTWEGLSEGVNEP) [compound 232] showed a Count of 62.
Same read-out and setting: next, 233 (HVSSEYPYYVVKHT) [compound 233]: 62.
The same measure, in the same setting: with 234 (HVPAEPLVYENQKS) [compound 234] the figure was 61; with 235 (LIVSQPSYLAVQYS) [compound 235], 61; with 236 (QLPLAKPNSVVATS) [compound 236], 61.
In turn, 237 (RLAWEEPHYVVKKS) [compound 237] registered a Count of 61.
On the same count and under the same terms, with 238 (KFTTQDSYYFGTQT) [compound 238] the figure was 60; with 239 (NVTSREPYHLLEKS) [compound 239], 60; with 240 (QLPFIGPYHVAKKS) [compound 240], 60.
